Results: patent US20240132513A1, “BENZAZEPINE DERIVATIVES, COMPOSITIONS, AND METHODS FOR TREATING COGNITIVE IMPAIRMENT” (AGENEBIO, INC., priority 2022, published 2024)
pKi: −log10 of the molar value. Where two headings read alike, the source gives them in different places.

Experiments:
GABAA R (α5β2γ2) = target: T1, GABAA R (α5β2γ2) (Homo sapiens, UniProt P18507+P31644); experiment: Positive allosteric modulator activity: potentiation of EC20 GABA current in oocytes; assay type: cell-based
T1 construct: expressed in transfected cells
T1 sequence (P31644 32-462): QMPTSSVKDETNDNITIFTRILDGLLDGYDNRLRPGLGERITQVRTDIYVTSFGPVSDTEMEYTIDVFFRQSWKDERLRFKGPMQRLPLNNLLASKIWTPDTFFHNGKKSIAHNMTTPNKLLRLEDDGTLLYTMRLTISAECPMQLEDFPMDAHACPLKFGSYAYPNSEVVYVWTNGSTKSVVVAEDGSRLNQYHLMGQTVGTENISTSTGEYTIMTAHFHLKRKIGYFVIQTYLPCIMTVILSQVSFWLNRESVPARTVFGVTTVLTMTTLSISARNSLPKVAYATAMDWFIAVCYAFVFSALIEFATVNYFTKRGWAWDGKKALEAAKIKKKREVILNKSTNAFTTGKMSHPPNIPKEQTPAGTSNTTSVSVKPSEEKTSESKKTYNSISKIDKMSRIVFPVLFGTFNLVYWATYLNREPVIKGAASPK
T1 sequence (P47870 25-512 partner limits assumed): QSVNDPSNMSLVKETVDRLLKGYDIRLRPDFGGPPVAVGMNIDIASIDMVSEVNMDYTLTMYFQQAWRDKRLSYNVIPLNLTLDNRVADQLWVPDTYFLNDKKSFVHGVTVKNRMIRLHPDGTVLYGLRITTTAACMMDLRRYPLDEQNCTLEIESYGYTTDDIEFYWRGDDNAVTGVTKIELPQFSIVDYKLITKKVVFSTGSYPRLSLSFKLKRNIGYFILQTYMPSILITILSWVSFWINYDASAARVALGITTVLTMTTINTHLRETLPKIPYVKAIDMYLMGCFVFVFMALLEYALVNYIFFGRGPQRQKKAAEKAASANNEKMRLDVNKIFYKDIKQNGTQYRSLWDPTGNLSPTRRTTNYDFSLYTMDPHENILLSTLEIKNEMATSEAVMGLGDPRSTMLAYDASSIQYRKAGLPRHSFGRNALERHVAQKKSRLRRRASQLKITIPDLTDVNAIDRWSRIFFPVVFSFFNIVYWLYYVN
T1 sequence (P18507 40-475): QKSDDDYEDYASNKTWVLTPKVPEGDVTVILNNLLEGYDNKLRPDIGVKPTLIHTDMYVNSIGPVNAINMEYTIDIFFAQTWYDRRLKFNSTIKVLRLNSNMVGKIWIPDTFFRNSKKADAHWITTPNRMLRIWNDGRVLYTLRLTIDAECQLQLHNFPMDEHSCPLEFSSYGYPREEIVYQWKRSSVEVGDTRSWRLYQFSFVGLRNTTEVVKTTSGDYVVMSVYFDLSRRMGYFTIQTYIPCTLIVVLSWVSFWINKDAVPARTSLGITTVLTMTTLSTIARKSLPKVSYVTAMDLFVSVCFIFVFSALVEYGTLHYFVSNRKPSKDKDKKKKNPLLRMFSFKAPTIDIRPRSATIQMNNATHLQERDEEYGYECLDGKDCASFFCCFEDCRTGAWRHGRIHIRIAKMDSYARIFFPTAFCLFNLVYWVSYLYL
Method: On day 1, 1 ng/32 nL of GABAA α5β2γ2 cDNA was injected into one oocyte. Test starts on day 2. The cDNA injected to the oocytes was a mix of alpha, beta and gamma, their ratio is 1:1:10 (by weight) and the total weight of the mixed 3 subunits to be injected in one oocyte was 1 ng in 32 nl volume. The injected oocytes can also be tested on day 3. In such case, the cDNA amount injected to the oocytes should be reduced by 20%.
Compounds of the present disclosure were tested using the following procedures.
8 oocytes were placed in 8 chambers of OpusXpress and superfused with Modified Barth's Saline (MBS) at 3 mL/min. Glass electrodes back-filled with 3M KCl (0.5-3 megaohms) were used. Membrane potential of oocytes was voltage-clamped at −60 mV. • 2).
Control Test (Diazepam or Methyl 3,5-Diphenylpyridazine-4-Carboxylate) • 1). New oocytes was used to run new test. • 2). […] Oocytes were washed with MBS for 5-10 min. • 4). […] Itest was divided by IGABA to obtain potentiation (%).
Test Compounds at Multiple Doses • 1). Repeat the above steps 1), 2) and 3) in the control test. • 2). […] Divide Itest by IGABA to obtain potentiation (%). • 3). Discard all tested oocytes, new oocytes were used and the above steps 1) and 2) were repeated to test second concentration of the same compound. Each oocyte was used for only one concentration test for a single test compound. The steps were repeated for other test compounds.

α5β3γ2 GABAA R = α5β3γ2 GABAA R (Homo sapiens, UniProt P18507+P31644); experiment: Binding activity on GABAA R: inhibition of [3H]Ro15-1788 binding, α5 containing receptor
α5β3γ2 GABAA R, sequence (P31644 32-462): as the sequence (P31644 32-462) above
α5β3γ2 GABAA R, sequence (P28472 26-473 partner): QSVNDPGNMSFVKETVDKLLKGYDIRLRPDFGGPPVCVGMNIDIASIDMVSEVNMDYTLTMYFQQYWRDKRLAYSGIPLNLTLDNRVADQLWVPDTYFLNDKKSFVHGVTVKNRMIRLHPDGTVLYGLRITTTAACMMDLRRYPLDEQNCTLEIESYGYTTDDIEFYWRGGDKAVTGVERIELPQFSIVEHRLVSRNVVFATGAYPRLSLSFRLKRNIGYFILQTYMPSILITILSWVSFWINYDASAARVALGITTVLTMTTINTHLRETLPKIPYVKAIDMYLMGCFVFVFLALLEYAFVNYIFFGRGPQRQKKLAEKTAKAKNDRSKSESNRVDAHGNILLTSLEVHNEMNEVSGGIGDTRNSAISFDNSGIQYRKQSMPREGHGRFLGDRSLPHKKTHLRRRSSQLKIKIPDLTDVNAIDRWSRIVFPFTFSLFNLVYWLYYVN
α5β3γ2 GABAA R, sequence (P18507 40-475): as the sequence (P18507 40-475) above
How it was run: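 Displacement of [3H]Ro15-1788 (flumazenil) measured at 4 °C over 1 h using 0.2 mg/ml membrane protein from Ltk cells carrying α5β3γ2 GABAA receptors, expression induced with 0.5 μM dexamethasone for 1 day; buffer pH 7.4 KH2PO4/EDTA/KCl. 10 μM diazepam defined nonspecific binding; filter-trapped radioactivity counted, in triplicate.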

[1] = read-out: GABA α5 Functional Data: potentiation, @ 100 nM, EC20 GABA, ranges of the column heads
[2] = read-out: GABA α5 Functional Data: potentiation
[3] = ranges of the column heads, [3H]Ro15-1788, Ltk cell membranes

activation at 0.1 µM (GABAA R (α5β2γ2); [2])	pKi (α5β3γ2 GABAA R; [3])	Structure (SMILES)	activation at 0.1 µM (GABAA R (α5β2γ2); [1])	pKi (α5β3γ2 GABAA R)
		CC(C)c1nc(-c2ncn3c2Cc2cn(C)nc2-c2cc(Cl)ccc2-3)no1 [Compound 141]	20 to 50%	> 7.00
		Cn1cc2c(n1)-c1cc(Cl)ccc1-n1cnc(-c3noc(C4CC4)n3)c1C2 [Compound 142]	20 to 50%	> 7.00
		Cn1cc2c(n1)-c1cc(Cl)ccc1-n1cnc(-c3noc(C(C)(C)C)n3)c1C2 [Compound 143]	5 to 20%	> 7.00
		Cn1cc2c(n1)-c1cc(Cl)ccc1-n1cnc(-c3noc(C(F)(F)F)n3)c1C2 [Compound 144]	20 to 50%	> 7.00
		Cn1cc2c(n1)-c1cc(Cl)ccc1-n1cnc(-c3noc(C4CCOC4)n3)c1C2 (centres unmarked) [Compound 145]	5 to 20%	> 7.00
		COc1ccc2c(c1)-c1nn(C)cc1Cc1c(-c3noc(C(C)(C)C)n3)ncn1-2 [Compound 146]	5 to 20%	> 7.00
5 to 20%	> 7.00	Cc1nc(-c2ncn3c2Cc2cn(C(C)C)nc2-c2cc(Cl)ccc2-3)no1 [Compound 147]		
5 to 20%	> 7.00	CC(C)n1cc2c(n1)-c1cc(Cl)ccc1-n1cnc(-c3noc(C(F)(F)F)n3)c1C2 [Compound 148]		
		CC(C)n1cc2c(n1)-c1cc(Cl)ccc1-n1cnc(-c3noc(C4CC4)n3)c1C2 [Compound 149]	20 to 50%	> 7.00
		CC(C)c1nc(-c2ncn3c2Cc2cn(C(C)C)nc2-c2cc(Cl)ccc2-3)no1 [Compound 150]	20 to 50%	> 7.00
		CCn1cc2c(n1)-c1cc(OC)ccc1-n1cnc(-c3nc(C(C)C)no3)c1C2 [Compound 151]	5 to 20%	> 7.00
20 to 50%	> 7.00	COCc1nc(-c2ncn3c2Cc2cn(C)nc2-c2cc(OC)ccc2-3)no1 [Compound 153]		
		CC(C)n1cc2c(n1)-c1cc(Cl)ccc1-n1cnc(-c3nc(C4CC4)no3)c1C2 [Compound 154]	5 to 20%	> 7.00
		COCc1nc(-c2ncn3c2Cc2cn(C)nc2-c2cc(Cl)ccc2-3)no1 [Compound 155]	20 to 50%	> 7.00
		CCn1cc2c(n1)-c1cc(OC)ccc1-n1cnc(-c3noc(C(C)C)n3)c1C2 [Compound 156]	20 to 50%	> 7.00
		CCn1cc2c(n1)-c1cc(OC)ccc1-n1cnc(-c3noc(C4CC4)n3)c1C2 [Compound 157]	20 to 50%	> 7.00
5 to 20%	> 7.00	CCn1cc2c(n1)-c1cc(OC)ccc1-n1cnc(-c3noc(C(F)(F)F)n3)c1C2 [Compound 158]		
		CCn1cc2c(n1)-c1cc(Cl)ccc1-n1cnc(-c3nc(C)no3)c1C2 [Compound 159]	20 to 50%	> 7.00
		Cc1noc(-c2ncn3c2Cc2cn(C(C)C)nc2-c2cc(Cl)ccc2-3)n1 [Compound 160]	20 to 50%	> 7.00
		Cc1noc(-c2ncn3c2Cc2cn(CC4CCOC4)nc2-c2cc(Cl)ccc2-3)n1 (centres unmarked) [Compound 161]	20 to 50%	> 7.00
		Clc1ccc2c(c1)-c1c(cnn1CC1CC1)Cc1c(-c3nc(C4CC4)no3)ncn1-2 [Compound 162]	5 to 20%	> 7.00
		Cn1cc2c(n1)-c1cc(Cl)ccc1-n1cnc(-c3cnn(Cc4ccccc4)c3)c1C2 [Compound 163]	5 to 20%	> 7.00
		CC(C)n1cc2c(n1)-c1cc(Cl)ccc1-n1cnc(-c3ncco3)c1C2 [Compound 167]	5 to 20%	> 7.00
		COc1ccc2c(c1)-c1nn(CC3CCOC3)cc1Cc1c(-c3nc(C4CC4)no3)ncn1-2 (centres unmarked) [Compound 168]	20 to 50%	> 7.00
5 to 20%	> 7.00	COc1ccc2c(c1)-c1nn(C(C)C)cc1Cc1c(-c3nc(C4CC4)no3)ncn1-2 [Compound 169]		
		COCc1noc(-c2ncn3c2Cc2cn(C)nc2-c2cc(OC)ccc2-3)n1 [Compound 170]	20 to 50%	> 7.00
		COc1ccc2c(c1)-c1nn(CC3CC3)cc1Cc1c(-c3nc(C4CC4)no3)ncn1-2 [Compound 171]	5 to 20%	> 7.00
5 to 20%	> 7.00	Clc1ccc2c(c1)-c1nn(CC3CC3)cc1Cc1c(-c3ncco3)ncn1-2 [Compound 172]		

activation at 0.1 µM (GABAA R (α5β2γ2); [2])	pKi (α5β3γ2 GABAA R; [3])	Structure (SMILES)	activation at 0.1 µM (GABAA R (α5β2γ2); [1])	pKi (α5β3γ2 GABAA R)
		COc1ccc(Cn2ncc3c2-c2cc(OC)ccc2-n2cnc(-c4noc(COCC(F)(F)F)n4)c2C3)cc1 [Compound 173]	5 to 20%	> 7.00
		COc1ccc2c(c1)-c1[nH]ncc1Cc1c(-c3noc(COCC(F)(F)F)n3)ncn1-2 [Compound 174]	20 to 50%	> 7.00
20 to 50%	> 7.00	CCn1cc2c(n1)-c1cc(Cl)ccc1-n1cnc(-c3noc(C(C)C)n3)c1C2 [Compound 175]		
5 to 20%	> 7.00	CCn1cc2c(n1)-c1cc(Cl)ccc1-n1cnc(-c3noc(C4CC4)n3)c1C2 [Compound 176]		
		CCn1cc2c(n1)-c1cc(Cl)ccc1-n1cnc(C3=N[C@H](C(C)C)CO3)c1C2 [Compound 177]	5 to 20%	> 7.00
		CCn1cc2c(n1)-c1cc(Cl)ccc1-n1cnc(C3=N[C@H](c4ccccc4)CO3)c1C2 [Compound 178]	20 to 50%	> 7.00
		CCn1cc2c(n1)-c1cc(Cl)ccc1-n1cnc(C3=N[C@@H](c4ccccc4)CO3)c1C2 [Compound 179]	20 to 50%	> 7.00
> 50%	> 7.00	COc1ccc2c(c1)-c1n[nH]cc1Cc1c(-c3noc(C(C)(C)OC)n3)ncn1-2 [Compound 181]		
		COc1ccc2c(c1)-c1nn(C)cc1Cc1c(-c3noc(COCC(F)(F)F)n3)ncn1-2 [Compound 183]	> 50%	> 7.00
> 50%	> 7.00	COc1ccc2c(c1)-c1c(cnn1C)Cc1c(-c3noc(COCC(F)(F)F)n3)ncn1-2 [Compound 184]		
		COc1ccc2c(c1)-c1nn(C)cc1Cc1c(-c3noc(C(C)(C)OC)n3)ncn1-2 [Compound 185]	20 to 50%	> 7.00
		COc1ccc2c(c1)-c1[nH]ncc1Cc1c(-c3noc(C4COCCO4)n3)ncn1-2 (centres unmarked) [Compound 187]	20 to 50%	> 7.00
> 50%	> 7.00	COc1ccc2c(c1)-c1[nH]ncc1Cc1c(-c3noc(C4(OC)CC4)n3)ncn1-2 [Compound 188]		
		COCC1COC(c2ncn3c2Cc2cn(C)nc2-c2cc(Cl)ccc2-3)=N1 (centres unmarked) [Compound 189]	20 to 50%	> 7.00
		Cn1cc2c(n1)-c1cc(Cl)ccc1-n1cnc(-c3cnn(Cc4ccccn4)c3)c1C2 [Compound 190]	20 to 50%	> 7.00
20 to 50%	> 7.00	CCn1cc2c(n1)-c1cc(Cl)ccc1-n1cnc(-c3nc(C4CCOC4)no3)c1C2 (centres unmarked) [Compound 192]		
		CC(C)c1noc(-c2ncn3c2Cc2cn(CC4CCCO4)nc2-c2cc(Cl)ccc2-3)n1 (centres unmarked) [Compound 193]	20 to 50%	> 7.00
		CCn1cc2c(n1)-c1cc(Cl)ccc1-n1cnc(-c3noc(COC4CCCC4)n3)c1C2 [Compound 194]	20 to 50%	> 7.00
		CCn1cc2c(n1)-c1cc(Cl)ccc1-n1cnc(-c3noc(C4COCCO4)n3)c1C2 (centres unmarked) [Compound 195]	5 to 20%	> 7.00
		CCn1cc2c(n1)-c1cc(Cl)ccc1-n1cnc(-c3noc(COC(C)(C)C)n3)c1C2 [Compound 197]	5 to 20%	> 7.00
20 to 50%	> 7.00	CCn1cc2c(n1)-c1cc(Cl)ccc1-n1cnc(-c3noc(C4(OC)CC4)n3)c1C2 [Compound 198]		
20 to 50%	> 7.00	FC(F)(F)c1noc(-c2ncn3c2Cc2cn(CC4CCOC4)nc2-c2cc(Cl)ccc2-3)n1 (centres unmarked) [Compound 200]		
		CC(C)c1noc(-c2ncn3c2Cc2cn(CC4CCOC4)nc2-c2cc(Cl)ccc2-3)n1 (centres unmarked) [Compound 201]	5 to 20%	> 7.00
		COc1ccc2c(c1)-c1nn(C)cc1Cc1c(-c3noc(C4COC4)n3)ncn1-2 [Compound 202]	20 to 50%	> 7.00
		COc1ccc2c(c1)-c1nn(C)cc1Cc1c(-c3noc(C4(OC)CC4)n3)ncn1-2 [Compound 203]	20 to 50%	> 7.00
		COc1ccc2c(c1)-c1nn(C)cc1Cc1c(-c3noc(C4(F)CC4)n3)ncn1-2 [Compound 205]	20 to 50%	> 7.00
		COc1ccc2c(c1)-c1c(cnn1C)Cc1c(-c3noc(C4(F)CC4)n3)ncn1-2 [Compound 206]	20 to 50%	> 7.00
